Results taken from patent US9522883B2, “Glycosidase inhibitors and uses thereof” (Alectos Therapeutics Inc., priority 2012, dated 2016).

Target: human O-GlcNAcase (Homo sapiens (Human), UniProt O60502)
Test: Assay for determination of KI values for inhibition of O-GlcNAcase activity (fluorescence-based hOGA)
Type: biochemical
Settings: purified human O-GlcNAcase, 4-Methylumbelliferyl N-acetyl-β-D-glucosaminide substrate, pH 7.0, Cheng-Prusoff
Description: Enzymatic reactions were carried out in a reaction containing 50 mM NaH2PO4, 100 mM NaCl and 0.1% BSA (pH 7.0) using 2 mM 4-Methylumbelliferyl N-acetyl-β-D-glucosaminide dihydrate (Sigma M2133) dissolved in ddH2O, as a substrate. The amount of purified human O-GlcNAcase enzyme used in the reaction was 0.7 nM. Test compound of varying concentrations was added to the enzyme prior to initiation of the reaction. The reaction was performed at room temperature in a 96-well plate and was initiated with the addition of substrate. The production of fluorescent product was measured every 60 sec for 45 min with a Tecan Infinite M200 plate-reader with excitation at 355 nm and emission detected at […], with 4-Methylumbelliferone (Sigma M1381) used to produce a standard curve. The slope of product production was determined for each concentration of compound tested and plotted, using standard curve fitting algorithms for sigmoidal dose response curves. The values for a four parameter logistic curve fit of the data were determined.
KI values were determined using the Cheng-Prusoff equation; the Km of O-GlcNAcase for substrate was 0.2 mM.

Sequence of human O-GlcNAcase (O60502 whole entry): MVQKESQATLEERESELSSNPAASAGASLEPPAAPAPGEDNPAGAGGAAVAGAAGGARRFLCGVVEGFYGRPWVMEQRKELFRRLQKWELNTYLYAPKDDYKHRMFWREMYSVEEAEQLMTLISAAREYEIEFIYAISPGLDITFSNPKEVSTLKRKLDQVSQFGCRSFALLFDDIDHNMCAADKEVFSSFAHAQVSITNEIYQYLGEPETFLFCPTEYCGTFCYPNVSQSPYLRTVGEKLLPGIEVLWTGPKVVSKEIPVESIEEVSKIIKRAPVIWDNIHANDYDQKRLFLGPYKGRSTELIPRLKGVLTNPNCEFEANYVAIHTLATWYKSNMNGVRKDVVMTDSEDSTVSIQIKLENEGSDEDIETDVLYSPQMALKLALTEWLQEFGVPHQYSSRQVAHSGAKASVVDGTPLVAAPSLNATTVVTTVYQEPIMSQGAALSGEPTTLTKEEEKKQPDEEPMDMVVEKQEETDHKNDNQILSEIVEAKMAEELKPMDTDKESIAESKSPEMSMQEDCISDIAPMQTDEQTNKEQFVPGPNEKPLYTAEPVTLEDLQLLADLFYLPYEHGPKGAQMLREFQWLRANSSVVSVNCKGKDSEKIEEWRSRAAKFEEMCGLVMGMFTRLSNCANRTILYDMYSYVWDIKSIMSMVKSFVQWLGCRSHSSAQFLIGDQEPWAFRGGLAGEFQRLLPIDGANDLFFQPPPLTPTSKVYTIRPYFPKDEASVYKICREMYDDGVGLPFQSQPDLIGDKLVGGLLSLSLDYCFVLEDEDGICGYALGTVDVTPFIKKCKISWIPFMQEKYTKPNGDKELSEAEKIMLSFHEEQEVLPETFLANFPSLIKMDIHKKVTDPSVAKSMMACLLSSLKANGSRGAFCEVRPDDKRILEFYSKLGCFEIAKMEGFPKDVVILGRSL

Ki: 2580 nM
Compound: CC(=O)N[C@H]1CN(CCCCc2ccccc2)[C@H](CO)[C@@H](O)[C@@H]1O [Example 1, N-((3S,4R,5R,6R)-4,5-dihydroxy-6-(hydroxymethyl)-1-(4-phenylbutyl)piperidin-3-yl)acetamide]
